According to patent publication US10035778B2, “Meta-azacyclic amino benzoic acid derivatives as pan integrin antagonists” (Saint Louis University, priority 2015, dated 2018):

Experiments:
Type in all cases: binding
[1] = biological target: Recombinant human integrin α5β1 (Homo sapiens (Human), UniProt P05556+P08648); assay: Solid Phase Receptor Assay (SPRA) for α5β1 function; conditions: fibronectin-coated plate
Procedure: 1. Solid Phase Receptor Assay (SPRA) for α5β1 Function
Purified human fibronectin (R&D Systems, 1918-FN) diluted to 2 μg/mL in TBS+ buffer (25 mM Tris pH 7.4, 137 mM NaCl, 2.7 mM KCl, 1 mM CaCl2, 1 mM MgCl2, 1 mM MnCl2) was added to wells (50 μL/well) of a 96-well half-well transparent microtiter plate (Greiner 675061) and incubated overnight at 4° C. Wells were washed 3 times with 150 μL TBS+ and 150 μL of blocking buffer (TBS+ with 1% bovine serum albumin, Sigma A7906) were added. The plate was incubated for 1 hr at 37° C. and then washed 3× with TBS+ buffer. Recombinant human integrin α5β1 (R&D Systems, 3230-A5) was diluted to 0.1 μg/mL in TBS+/0.1% bovine serum albumin. Compounds were diluted 1:100 into the integrin solution and then 50 μL added to empty wells of the washed fibronectin-coated plate according to a standard template with each sample repeated in triplicate. After incubation for two hours at room temperature, the plate was washed 3× with 150 μL of TBS+ buffer. To each well, 50 μl of biotinylated anti-α5 antibody (R&D Systems, BAF1864) at 0.5 μg/mL in TBS+/0.1% BSA were added and the plate covered and incubated for 1 hr at room temperature. After washing the plate 3× with 150 μL of TBS+ buffer, 50 μL of streptavidin-conjugated horseradish peroxidase (R&D Systems, DY998) diluted in TBS+ blocking buffer were added to the wells and the plate incubated for 20 min at room temperature. The plate was washed 3× with TBS+ buffer followed by 50 μL of room temperature TMB substrate (Sigma, T444) added to each well and the plate incubated for 20 min at room temperature. Plates were read by colorimetric detection at 650 nm wavelength using a Tecan Safire II plate reader. Concentration-response curves were constructed by non-linear regression (best fit) analysis, and IC50 values were calculated for each compound.

[2] = biological target: Recombinant human integrin αvβ1 (Homo sapiens (Human), UniProt P05556+P06756); assay: Solid Phase Receptor Assay (SPRA) for αvβ1 function; conditions: fibronectin-coated plate
Procedure: 2. Solid Phase Receptor Assay (SPRA) for αvβ1 Function
Purified human fibronectin (R&D Systems, 1918-FN) diluted to 5 μg/mL in TBS+ buffer (25 mM Tris pH 7.4, 137 mM NaCl, 2.7 mM KCl, 1 mM CaCl2, 1 mM MgCl2, 1 mM MnCl2) was added to wells (50 μL/well) of a 96-well half-well transparent microtiter plate (Greiner 675061) and incubated overnight at 4° C. Wells were washed 3 times with 150 μL TBS+ and 150 μL of blocking buffer (TBS+ with 1% bovine serum albumin, Sigma A7906) were added. The plate was incubated for 1 hr at 37° C. and then washed 3× with TBS+ buffer. Recombinant human integrin αvβ1 (R&D Systems. 6579-AV) was diluted to 2.0 μg/mL in TBS+/0.1% bovine serum albumin. Compounds were diluted 1:100 into the integrin solution and 50 μL added to empty wells of the washed fibronectin-coated plate according to a standard template with each sample repeated in triplicate. After incubation for two hours at room temperature, the plate was washed 3× with 150 μL of TBS+ buffer. To each well, 50 μL of biotinylated anti-αv antibody (R&D Systems, BAF1219) at 1 μg/mL in TBS+/0.1% BSA were added and the plate covered and incubated for 1 hr at room temperature. After washing the plate 3× with 150 μL of TBS+ buffer, 50 μL of streptavidin-conjugated horseradish peroxidase (R&D Systems, DY998) diluted in TBS+ blocking buffer were added to the wells and the plate incubated for 20 min at room temperature. The plate was washed 3× with TBS+ buffer followed by 50 μL of TMB substrate (Sigma, T4444) added to each well and the plate incubated for 20 min at room temperature. Plates were read by colorimetric detection at 650 nm wavelength using a Tecan Safire II plate reader. Concentration-response curves were constructed by non-linear regression (best fit) analysis, and IC50 values were calculated for each compound.

[3] = biological target: Recombinant human integrin αvβ5 (Homo sapiens (Human), UniProt P06756+P18084); assay: Solid Phase Receptor Assay (SPRA) for αvβ5 function; conditions: vitronectin-coated plate
Procedure: 4. Solid Phase Receptor Assay (SPRA) for αvβ5 Function
Recombinant human vitronectin (R&D Systems, 2308-VN) at 0.25 μg/mL in TBS+ buffer (25 mM Tris pH 7.4, 137 mM NaCl, 2.7 mM KCl, 1 mM CaCl2, 1 mM MgCl2, 1 mM MnCl2) was added to wells (50 μL/well) of a 96-well half-well transparent microtiter plate (Greiner 675061) and incubated overnight at 4° C. Wells were washed 3 times with 150 μL TBS+ and 150 μL of blocking buffer (TBS+ with 1% bovine serum albumin, Sigma A7906) were added. The plate was incubated for 1 hr at 37° C. and then washed 3× with TBS+ buffer. Recombinant human integrin αvβ5 (R&D Systems, 2528-AV) was diluted to 0.1 μg/mL in TBS+/0.1% bovine serum albumin. Compounds were diluted 1:100 into the integrin solution and then 50 μL added to empty wells of the washed vitronectin-coated plate according to a standard template with each sample repeated in triplicate. After incubation for two hours at room temperature, the plate was washed 3× with 150 μL of TBS+ buffer. To each well, 50 μl of biotinylated anti-αv antibody (R&D Systems, BAF1219) at 0.5 μg/mL in TBS+/0.1% BSA at 0.5 μg/mL were added and the plate covered and incubated for 1 hr at room temperature. After washing the plate 3× with 150 μL of TBS+ buffer, 50 μL of streptavidin-conjugated horseradish peroxidase (R&D Systems DY998) diluted in TBS+ blocking buffer were added to the wells and the plate incubated for 20 min at room temperature. The plate was washed 3× with TBS+ buffer followed by 50 μL of TMB substrate (Sigma T4444) added to each well and the plate incubated for 20 min at room temperature. Plates were read by colorimetric detection at 650 nm wavelength using a Tecan Safire II plate reader. Concentration-response curves were constructed by non-linear regression (best fit) analysis, and IC50 values were calculated for each compound.

Recombinant human integrin αvβ5, sequence (P06756 31-992): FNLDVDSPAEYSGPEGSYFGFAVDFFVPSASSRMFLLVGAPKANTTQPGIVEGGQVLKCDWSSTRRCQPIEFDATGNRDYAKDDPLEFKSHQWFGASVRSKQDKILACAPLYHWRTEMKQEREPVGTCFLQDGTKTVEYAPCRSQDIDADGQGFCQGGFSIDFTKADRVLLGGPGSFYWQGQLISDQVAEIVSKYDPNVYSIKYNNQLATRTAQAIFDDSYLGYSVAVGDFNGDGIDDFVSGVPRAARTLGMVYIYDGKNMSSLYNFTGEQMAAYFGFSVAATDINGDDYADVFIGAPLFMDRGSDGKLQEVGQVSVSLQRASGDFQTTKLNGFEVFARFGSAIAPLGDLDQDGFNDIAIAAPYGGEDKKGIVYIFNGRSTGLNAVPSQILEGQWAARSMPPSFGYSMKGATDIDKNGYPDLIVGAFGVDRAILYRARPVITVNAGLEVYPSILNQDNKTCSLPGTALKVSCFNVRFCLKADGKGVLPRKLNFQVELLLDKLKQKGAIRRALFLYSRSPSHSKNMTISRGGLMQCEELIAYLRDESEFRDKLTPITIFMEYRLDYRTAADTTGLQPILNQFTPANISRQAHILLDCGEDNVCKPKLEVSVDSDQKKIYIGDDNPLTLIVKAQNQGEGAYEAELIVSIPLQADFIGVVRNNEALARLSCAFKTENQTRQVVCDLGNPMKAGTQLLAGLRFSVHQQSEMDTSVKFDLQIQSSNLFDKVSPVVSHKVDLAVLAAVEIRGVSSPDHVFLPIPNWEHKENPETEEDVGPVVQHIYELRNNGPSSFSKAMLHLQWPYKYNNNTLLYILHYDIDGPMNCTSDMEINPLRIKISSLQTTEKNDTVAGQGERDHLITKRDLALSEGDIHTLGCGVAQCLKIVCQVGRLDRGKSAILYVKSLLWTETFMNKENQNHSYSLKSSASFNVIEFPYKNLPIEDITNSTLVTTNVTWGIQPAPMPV
Recombinant human integrin αvβ5, sequence (P18084 24-719): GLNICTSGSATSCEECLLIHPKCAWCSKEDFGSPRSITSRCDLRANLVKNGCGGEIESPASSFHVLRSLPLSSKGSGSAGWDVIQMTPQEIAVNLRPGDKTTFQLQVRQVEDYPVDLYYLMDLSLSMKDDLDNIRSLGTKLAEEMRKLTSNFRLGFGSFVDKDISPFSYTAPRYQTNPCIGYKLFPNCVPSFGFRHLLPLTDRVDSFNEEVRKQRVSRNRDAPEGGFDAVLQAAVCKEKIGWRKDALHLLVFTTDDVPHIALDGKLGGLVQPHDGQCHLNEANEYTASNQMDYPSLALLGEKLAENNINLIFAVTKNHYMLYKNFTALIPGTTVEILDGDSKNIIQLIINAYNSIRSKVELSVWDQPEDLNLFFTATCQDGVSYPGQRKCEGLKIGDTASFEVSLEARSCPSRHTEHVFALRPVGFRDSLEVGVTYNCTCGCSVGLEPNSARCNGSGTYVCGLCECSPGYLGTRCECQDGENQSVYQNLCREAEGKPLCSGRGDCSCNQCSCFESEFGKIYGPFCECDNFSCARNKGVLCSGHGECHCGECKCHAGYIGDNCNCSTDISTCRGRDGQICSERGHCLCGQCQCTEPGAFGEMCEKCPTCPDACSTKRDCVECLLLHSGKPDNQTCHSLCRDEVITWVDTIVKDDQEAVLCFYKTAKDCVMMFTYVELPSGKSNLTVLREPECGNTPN
Recombinant human integrin αvβ1, sequence (P06756 31-992): as the sequence (P06756 31-992) above
Recombinant human integrin αvβ1, sequence (P05556 21-728): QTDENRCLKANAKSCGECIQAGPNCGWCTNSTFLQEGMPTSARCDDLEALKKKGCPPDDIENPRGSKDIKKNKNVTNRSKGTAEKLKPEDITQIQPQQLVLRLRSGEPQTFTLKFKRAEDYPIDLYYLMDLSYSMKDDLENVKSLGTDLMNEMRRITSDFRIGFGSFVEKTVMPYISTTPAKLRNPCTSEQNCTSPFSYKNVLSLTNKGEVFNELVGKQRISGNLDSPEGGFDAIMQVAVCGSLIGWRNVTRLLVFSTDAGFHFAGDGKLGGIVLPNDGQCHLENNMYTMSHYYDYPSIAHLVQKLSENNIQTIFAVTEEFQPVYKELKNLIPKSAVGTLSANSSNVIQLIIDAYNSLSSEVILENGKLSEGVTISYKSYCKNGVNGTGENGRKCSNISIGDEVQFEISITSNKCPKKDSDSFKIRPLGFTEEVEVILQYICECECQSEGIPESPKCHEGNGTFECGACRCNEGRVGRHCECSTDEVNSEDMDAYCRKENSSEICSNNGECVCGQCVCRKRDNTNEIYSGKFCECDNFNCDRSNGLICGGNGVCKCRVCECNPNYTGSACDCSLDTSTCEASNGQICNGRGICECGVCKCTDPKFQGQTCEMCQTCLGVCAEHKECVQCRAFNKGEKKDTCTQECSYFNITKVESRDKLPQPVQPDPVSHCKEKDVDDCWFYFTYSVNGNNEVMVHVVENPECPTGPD
Recombinant human integrin α5β1, sequence (P08648 42-995): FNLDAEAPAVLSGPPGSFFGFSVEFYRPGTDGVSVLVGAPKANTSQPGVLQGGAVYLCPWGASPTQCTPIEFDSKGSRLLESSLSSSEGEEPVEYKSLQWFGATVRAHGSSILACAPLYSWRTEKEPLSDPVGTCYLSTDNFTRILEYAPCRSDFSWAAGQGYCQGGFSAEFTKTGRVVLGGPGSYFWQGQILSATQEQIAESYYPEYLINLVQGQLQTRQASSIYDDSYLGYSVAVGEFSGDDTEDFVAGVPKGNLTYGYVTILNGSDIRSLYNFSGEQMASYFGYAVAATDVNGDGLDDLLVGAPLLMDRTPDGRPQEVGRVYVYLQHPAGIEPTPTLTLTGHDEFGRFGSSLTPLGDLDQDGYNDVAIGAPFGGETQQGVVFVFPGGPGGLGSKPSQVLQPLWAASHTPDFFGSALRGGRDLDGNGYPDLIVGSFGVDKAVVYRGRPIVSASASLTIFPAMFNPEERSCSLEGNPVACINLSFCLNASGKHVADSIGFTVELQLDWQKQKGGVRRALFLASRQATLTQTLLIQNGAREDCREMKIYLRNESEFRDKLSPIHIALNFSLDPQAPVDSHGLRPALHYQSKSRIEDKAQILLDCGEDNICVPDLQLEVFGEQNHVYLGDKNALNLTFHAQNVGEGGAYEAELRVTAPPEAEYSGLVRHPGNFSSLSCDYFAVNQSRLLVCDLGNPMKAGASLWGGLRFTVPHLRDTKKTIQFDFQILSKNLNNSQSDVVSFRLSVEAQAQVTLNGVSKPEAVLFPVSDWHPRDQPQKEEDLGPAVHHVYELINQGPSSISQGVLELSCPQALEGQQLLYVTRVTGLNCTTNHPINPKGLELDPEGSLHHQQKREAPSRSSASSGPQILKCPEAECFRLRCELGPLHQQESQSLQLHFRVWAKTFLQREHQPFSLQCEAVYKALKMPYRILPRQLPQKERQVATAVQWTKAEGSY
Recombinant human integrin α5β1, sequence (P05556 21-728): as the sequence (P05556 21-728) above

Which IC50 [1] does the source give for `O=C(O)C[C@H](NC(=O)CNC(=O)c1cc(O)cc(NC2=NCC(O)CN2)c1)c1cc(Cl)cc(OC(F)(F)F)c1` (stereo partly drawn) [Example 16, (3S)-3-[3-chloro-5-(trifluoromethoxy)phenyl)-3-(2-(3-hydroxy-5-((5-hydroxy-1,4,5,6-tetrahydropyrimidin-2-yl)amino)benzamido)acetamido)propanoic acid] here?
The IC50 was 1 ± 0.4 nM.

What about the IC50 [2] of the same compound?
The IC50 was 3 ± 2 nM.

What about the IC50 [3] of the same compound?
The IC50 was 0.6 nM.

How did the IC50 [1] turn out when `O=C(O)C[C@H](NC(=O)CNC(=O)c1cc(O)cc(NC2=NCC(O)CN2)c1)c1cc(Br)cc(OC(F)(F)F)c1` (stereo partly drawn) [Example 17, (3S)-3-(3-bromo-5-(trifluoromethoxy)phenyl)-3-(2-(3-hydroxy-5-((5-hydroxy-1,4,5,6-tetrahydropyrimidin-2-yl)amino)benzamido)acetamido)propanoic acid] was run?
The IC50 was 1 ± 0.1 nM.

What about the IC50 [2] of the same compound?
The IC50 was 4 ± 2 nM.

And the IC50 [3]?
The IC50 was 0.6 nM.

`O=C(O)C[C@H](NC(=O)CNC(=O)c1cc(O)cc(NC2=NCC(O)CN2)c1)c1cc(Cl)cc(Br)c1O` (stereo partly drawn) [Example C1, reference compound] was tested. Which IC50 [1] did it give?
Its IC50 is 16 ± 9 nM.

And the IC50 [2]?
Its IC50 is 17 ± 2 nM.

And the IC50 [3]?
The IC50 was 3 ± 1 nM.

For `O=C(O)C[C@H](NC(=O)CNC(=O)c1cc(O)cc(NC2=NCC(O)CN2)c1)c1ccccc1` (stereo partly drawn) [Example C2, reference compound], which IC50 [1] is on record?
The IC50 was 8 nM.

What about the IC50 [2] of the same compound?
The IC50 was 5 nM.

And the IC50 [3]?
The IC50 was 0.4 nM.

`O=C(O)CC(NC(=O)CNC(=O)c1cc(O)cc(NC2=NCC(O)CN2)c1)c1cc(Cl)cc(Cl)c1O` (stereo not drawn) [Example C3, reference compound] was tested. Which IC50 [1] did it give?
Its IC50 is 40 nM.

And the IC50 [2]?
The IC50 was 7 nM.

And the IC50 [3]?
The IC50 was 2 nM.

How did the IC50 [1] turn out when `Cc1cc(C)cc(C(CC(=O)O)NC(=O)CNC(=O)c2cccc(NC(=N)N)c2)c1` (stereo not drawn) [Example C4, reference compound] was run?
Its IC50 is 7 nM.

What about the IC50 [2] of the same compound?
Its IC50 is 10 nM.

And the IC50 [3]?
Its IC50 is 2 nM.

Which IC50 [1] does the source give for `N=C(N)Nc1cccc(C(=O)NCC(=O)NC(CC(=O)O)c2ccccc2)c1` (stereo not drawn) [Example C5, reference compound] here?
The IC50 was 24 nM.

And the IC50 [2]?
Its IC50 is 17 ± 5 nM.

And the IC50 [3]?
The IC50 was 1 nM.

Which results are given for `Cc1ccc(O)c(C(CC(=O)O)NC(=O)CNC(=O)c2cc(O)cc(NC3=NCC(O)CN3)c2)c1` (stereo not drawn) [Example C6, reference compound]?
IC50 [1]: 7 ± 4 nM; IC50 [2]: 8 ± 6 nM; IC50 [3]: 1 nM

How did the IC50 [1] turn out when `O=C(O)CC(NC(=O)CNC(=O)c1cc(O)cc(NC2=NCC(O)CN2)c1)c1cc(Br)cc(Br)c1O` (stereo not drawn) [Example C7, reference compound] was run?
Its IC50 is 59 nM.

What about the IC50 [2] of the same compound?
The IC50 was 101 nM.

What about the IC50 [3] of the same compound?
Its IC50 is 25 nM.

For `Cc1ccc(O)c(C(CC(=O)O)NC(=O)CNC(=O)c2cccc(NC(=N)N)c2)c1` (stereo not drawn) [Example C8, reference compound], which IC50 [1] is on record?
Its IC50 is 38 nM.

What about the IC50 [2] of the same compound?
Its IC50 is 13 nM.

And the IC50 [3]?
The IC50 was 5 nM.

Which results are given for `N=C(N)Nc1cccc(C(=O)NCC(=O)NC(CC(=O)O)c2cc(F)cc(C(F)(F)F)c2)c1` (stereo not drawn) [Example C9, reference compound]?
IC50 [1]: 8 ± 3 nM; IC50 [2]: 5 ± 2 nM; IC50 [3]: 0.4 nM

How did the IC50 [1] turn out when `Cc1cc(Cl)cc([C@@H](CC(=O)O)NC(=O)CNC(=O)c2cc(O)cc(NC3=NCC(O)CN3)c2)c1O` (stereo partly drawn) [Example C10, reference compound] was run?
Its IC50 is 18 nM.

What about the IC50 [2] of the same compound?
Its IC50 is 14 ± 8 nM.

What about the IC50 [3] of the same compound?
The IC50 was 2 nM.

Which IC50 [1] does the source give for `Cc1cc(Cl)cc([C@@H](CC(=O)O)NC(=O)CNC(=O)c2cccc(NC3=NCCN3)c2)c1O` [Example C11, reference compound] here?
The IC50 was 33 nM.

And the IC50 [2]?
The IC50 was 16 ± 4 nM.

What about the IC50 [3] of the same compound?
Its IC50 is 2 nM.
